Reference: ChEMBL document CHEMBL4630901 (2021)

Experiments:
Details in all cases: Compound concentration 10.0 uM
[1] = biological target: Mu-type opioid receptor (Homo sapiens) (UniProt P35372)
[2] = biological target: T1, Muscarinic acetylcholine receptor M4 (Homo sapiens) (UniProt P08173)
T1 sequence (whole entry): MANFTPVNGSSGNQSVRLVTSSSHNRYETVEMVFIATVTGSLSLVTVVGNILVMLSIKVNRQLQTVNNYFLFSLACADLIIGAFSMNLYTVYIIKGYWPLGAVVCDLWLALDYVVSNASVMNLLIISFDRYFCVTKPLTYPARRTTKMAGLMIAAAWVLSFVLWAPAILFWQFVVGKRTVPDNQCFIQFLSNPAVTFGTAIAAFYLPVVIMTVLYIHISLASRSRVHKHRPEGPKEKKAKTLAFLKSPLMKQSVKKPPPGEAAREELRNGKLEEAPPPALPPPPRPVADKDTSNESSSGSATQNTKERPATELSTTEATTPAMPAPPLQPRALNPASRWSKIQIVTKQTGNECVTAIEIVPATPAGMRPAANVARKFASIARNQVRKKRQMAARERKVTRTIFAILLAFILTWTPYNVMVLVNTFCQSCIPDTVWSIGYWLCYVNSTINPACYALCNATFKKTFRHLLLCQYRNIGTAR

[3] = biological target: 5-hydroxytryptamine receptor 6 (Homo sapiens) (UniProt P50406)
[4] = biological target: Sodium-dependent serotonin transporter (Homo sapiens) (UniProt P31645)
[5] = biological target: 5-hydroxytryptamine receptor 5A (Homo sapiens) (UniProt P47898)
[6] = biological target: 5-hydroxytryptamine receptor 2B (Homo sapiens) (UniProt P41595)
[7] = biological target: 5-hydroxytryptamine receptor 3A (Homo sapiens) (UniProt P46098)
[8] = biological target: T2, 5-hydroxytryptamine receptor 1A (Homo sapiens) (UniProt P08908)
T2 sequence (whole entry): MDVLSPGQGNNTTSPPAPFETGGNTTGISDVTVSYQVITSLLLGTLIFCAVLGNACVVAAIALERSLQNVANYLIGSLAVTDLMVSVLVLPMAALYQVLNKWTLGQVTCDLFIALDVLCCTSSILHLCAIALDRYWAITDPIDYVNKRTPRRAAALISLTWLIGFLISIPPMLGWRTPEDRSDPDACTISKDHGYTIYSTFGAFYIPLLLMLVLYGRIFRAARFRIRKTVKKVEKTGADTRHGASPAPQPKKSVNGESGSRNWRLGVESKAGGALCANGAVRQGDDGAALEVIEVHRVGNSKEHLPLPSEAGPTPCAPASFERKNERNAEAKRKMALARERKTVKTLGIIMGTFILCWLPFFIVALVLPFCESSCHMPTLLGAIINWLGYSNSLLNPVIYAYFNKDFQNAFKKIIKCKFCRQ

[9] = biological target: Alpha-1B adrenergic receptor (Homo sapiens) (UniProt P35368)
[10] = biological target: T3, Alpha-2A adrenergic receptor (Homo sapiens) (UniProt P08913)
T3 sequence (whole entry): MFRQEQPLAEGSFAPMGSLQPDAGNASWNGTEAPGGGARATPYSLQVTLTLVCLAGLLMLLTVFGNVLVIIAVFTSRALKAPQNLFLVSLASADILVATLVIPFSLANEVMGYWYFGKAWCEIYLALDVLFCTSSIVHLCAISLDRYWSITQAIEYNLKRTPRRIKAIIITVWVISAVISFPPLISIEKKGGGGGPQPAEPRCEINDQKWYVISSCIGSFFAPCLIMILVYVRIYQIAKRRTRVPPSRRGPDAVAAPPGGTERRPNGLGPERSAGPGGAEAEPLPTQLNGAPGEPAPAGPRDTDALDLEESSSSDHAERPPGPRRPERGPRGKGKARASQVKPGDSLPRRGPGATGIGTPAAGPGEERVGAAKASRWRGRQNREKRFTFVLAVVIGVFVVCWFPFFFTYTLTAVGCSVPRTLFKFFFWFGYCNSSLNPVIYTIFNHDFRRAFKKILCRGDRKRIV

[11] = biological target: Histamine H2 receptor (Homo sapiens) (UniProt P25021)
[12] = biological target: 5-hydroxytryptamine receptor 2A (Homo sapiens) (UniProt P28223)
[13] = biological target: Beta-2 adrenergic receptor (Homo sapiens) (UniProt P07550)
[14] = biological target: Muscarinic acetylcholine receptor M5 (Homo sapiens) (UniProt P08912)
[15] = biological target: T4, Muscarinic acetylcholine receptor M2 (Homo sapiens) (UniProt P08172)
T4 sequence (whole entry): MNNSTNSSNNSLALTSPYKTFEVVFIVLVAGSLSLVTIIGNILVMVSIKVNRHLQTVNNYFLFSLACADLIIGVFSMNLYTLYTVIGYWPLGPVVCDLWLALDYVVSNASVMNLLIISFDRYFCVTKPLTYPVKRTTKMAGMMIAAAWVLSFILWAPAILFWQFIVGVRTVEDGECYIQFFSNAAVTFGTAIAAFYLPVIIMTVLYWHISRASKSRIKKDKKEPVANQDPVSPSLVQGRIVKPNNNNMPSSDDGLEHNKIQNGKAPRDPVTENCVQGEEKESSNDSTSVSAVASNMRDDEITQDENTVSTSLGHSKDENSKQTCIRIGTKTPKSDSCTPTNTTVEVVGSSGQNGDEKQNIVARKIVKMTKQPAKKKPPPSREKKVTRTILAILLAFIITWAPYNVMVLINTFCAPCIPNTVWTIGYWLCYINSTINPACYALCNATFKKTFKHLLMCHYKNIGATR

[16] = biological target: Alpha-1D adrenergic receptor (Homo sapiens) (UniProt P25100)
[17] = biological target: Delta-type opioid receptor (Homo sapiens) (UniProt P41143)
[18] = biological target: T4, Muscarinic acetylcholine receptor M2 (Homo sapiens); remark: listed apart in the source
[19] = biological target: T1, Muscarinic acetylcholine receptor M4 (Homo sapiens); remark: listed apart in the source
[20] = biological target: Sodium-dependent dopamine transporter (Homo sapiens) (UniProt Q01959)
[21] = biological target: Muscarinic acetylcholine receptor M3 (Homo sapiens) (UniProt P20309)

Sequence of Mu-type opioid receptor (Homo sapiens) (P35372 whole entry): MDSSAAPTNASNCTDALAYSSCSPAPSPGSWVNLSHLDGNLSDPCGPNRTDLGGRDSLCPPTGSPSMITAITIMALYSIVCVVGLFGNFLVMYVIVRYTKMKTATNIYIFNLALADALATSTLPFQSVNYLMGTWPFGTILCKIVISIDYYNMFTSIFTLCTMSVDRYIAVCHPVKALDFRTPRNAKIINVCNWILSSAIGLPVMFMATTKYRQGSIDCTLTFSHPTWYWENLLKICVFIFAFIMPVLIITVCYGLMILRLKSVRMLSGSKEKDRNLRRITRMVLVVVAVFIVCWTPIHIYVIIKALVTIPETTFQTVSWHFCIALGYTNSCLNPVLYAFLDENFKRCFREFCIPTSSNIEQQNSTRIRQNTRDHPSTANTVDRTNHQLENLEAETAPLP
Sequence of 5-hydroxytryptamine receptor 6 (Homo sapiens) (P50406 whole entry): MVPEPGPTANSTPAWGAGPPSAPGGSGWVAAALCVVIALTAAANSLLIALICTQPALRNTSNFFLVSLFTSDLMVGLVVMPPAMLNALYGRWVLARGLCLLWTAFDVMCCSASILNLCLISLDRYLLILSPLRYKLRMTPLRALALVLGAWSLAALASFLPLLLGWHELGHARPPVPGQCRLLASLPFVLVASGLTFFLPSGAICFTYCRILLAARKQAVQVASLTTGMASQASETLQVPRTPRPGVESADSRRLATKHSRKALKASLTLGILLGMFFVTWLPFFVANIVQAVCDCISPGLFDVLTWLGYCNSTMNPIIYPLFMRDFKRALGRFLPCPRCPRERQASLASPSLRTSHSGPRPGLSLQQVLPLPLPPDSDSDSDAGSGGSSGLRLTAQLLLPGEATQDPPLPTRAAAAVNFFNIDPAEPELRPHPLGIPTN
Sequence of Alpha-1B adrenergic receptor (Homo sapiens) (P35368 whole entry): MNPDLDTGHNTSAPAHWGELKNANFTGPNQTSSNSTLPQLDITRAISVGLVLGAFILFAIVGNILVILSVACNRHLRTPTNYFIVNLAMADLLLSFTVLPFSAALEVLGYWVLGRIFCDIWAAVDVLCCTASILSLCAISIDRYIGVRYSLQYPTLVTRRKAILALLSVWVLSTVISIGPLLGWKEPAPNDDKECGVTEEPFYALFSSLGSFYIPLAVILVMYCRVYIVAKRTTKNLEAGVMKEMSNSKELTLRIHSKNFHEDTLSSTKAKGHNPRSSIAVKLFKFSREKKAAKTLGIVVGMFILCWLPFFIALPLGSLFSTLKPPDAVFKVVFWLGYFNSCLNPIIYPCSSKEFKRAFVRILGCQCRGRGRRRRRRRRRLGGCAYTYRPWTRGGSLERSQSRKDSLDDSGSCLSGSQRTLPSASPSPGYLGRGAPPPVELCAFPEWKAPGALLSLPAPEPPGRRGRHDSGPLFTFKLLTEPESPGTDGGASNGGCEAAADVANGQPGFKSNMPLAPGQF
Sequence of 5-hydroxytryptamine receptor 2A (Homo sapiens) (P28223 whole entry): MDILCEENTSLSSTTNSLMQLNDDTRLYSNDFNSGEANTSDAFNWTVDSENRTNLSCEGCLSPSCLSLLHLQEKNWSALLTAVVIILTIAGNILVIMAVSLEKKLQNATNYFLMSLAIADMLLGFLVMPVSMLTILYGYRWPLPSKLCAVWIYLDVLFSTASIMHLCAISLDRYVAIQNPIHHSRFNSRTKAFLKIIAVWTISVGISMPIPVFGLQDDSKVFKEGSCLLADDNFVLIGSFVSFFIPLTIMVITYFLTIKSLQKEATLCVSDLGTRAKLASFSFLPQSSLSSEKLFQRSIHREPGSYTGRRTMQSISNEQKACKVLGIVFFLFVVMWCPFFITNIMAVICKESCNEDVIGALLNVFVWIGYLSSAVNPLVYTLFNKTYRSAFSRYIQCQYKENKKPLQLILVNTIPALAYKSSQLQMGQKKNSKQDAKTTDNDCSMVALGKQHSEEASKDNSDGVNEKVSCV
Sequence of Muscarinic acetylcholine receptor M5 (Homo sapiens) (P08912 whole entry): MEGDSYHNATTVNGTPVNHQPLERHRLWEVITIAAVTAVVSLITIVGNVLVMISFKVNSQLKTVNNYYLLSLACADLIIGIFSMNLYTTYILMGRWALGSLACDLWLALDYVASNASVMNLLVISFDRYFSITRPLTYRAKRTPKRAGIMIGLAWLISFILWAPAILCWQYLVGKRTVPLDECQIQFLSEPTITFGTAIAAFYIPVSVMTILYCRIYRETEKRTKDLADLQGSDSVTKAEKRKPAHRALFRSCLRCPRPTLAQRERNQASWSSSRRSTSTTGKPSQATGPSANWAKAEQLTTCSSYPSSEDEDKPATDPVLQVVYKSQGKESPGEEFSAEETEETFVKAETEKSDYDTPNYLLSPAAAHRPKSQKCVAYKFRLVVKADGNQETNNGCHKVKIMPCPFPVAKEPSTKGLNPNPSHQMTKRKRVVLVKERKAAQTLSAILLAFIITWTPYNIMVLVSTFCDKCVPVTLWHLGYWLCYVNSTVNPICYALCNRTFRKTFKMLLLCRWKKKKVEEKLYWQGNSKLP
Sequence of Sodium-dependent serotonin transporter (Homo sapiens) (P31645 whole entry, looked up): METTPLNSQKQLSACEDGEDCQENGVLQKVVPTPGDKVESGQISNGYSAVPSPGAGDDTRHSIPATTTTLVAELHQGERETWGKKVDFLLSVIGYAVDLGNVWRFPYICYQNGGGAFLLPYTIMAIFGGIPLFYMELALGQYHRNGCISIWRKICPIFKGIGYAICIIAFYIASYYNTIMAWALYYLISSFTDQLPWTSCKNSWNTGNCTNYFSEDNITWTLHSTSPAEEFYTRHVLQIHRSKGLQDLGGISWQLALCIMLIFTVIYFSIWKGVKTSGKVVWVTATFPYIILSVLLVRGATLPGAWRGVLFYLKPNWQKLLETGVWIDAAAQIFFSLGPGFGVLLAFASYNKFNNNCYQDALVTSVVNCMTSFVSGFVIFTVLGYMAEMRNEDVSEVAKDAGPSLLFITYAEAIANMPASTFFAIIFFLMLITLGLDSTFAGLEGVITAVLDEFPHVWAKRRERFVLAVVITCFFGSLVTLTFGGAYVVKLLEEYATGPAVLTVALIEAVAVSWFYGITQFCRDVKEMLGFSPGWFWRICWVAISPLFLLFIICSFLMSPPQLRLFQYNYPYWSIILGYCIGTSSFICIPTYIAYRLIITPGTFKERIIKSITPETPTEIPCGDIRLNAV
Sequence of 5-hydroxytryptamine receptor 2B (Homo sapiens) (P41595 whole entry): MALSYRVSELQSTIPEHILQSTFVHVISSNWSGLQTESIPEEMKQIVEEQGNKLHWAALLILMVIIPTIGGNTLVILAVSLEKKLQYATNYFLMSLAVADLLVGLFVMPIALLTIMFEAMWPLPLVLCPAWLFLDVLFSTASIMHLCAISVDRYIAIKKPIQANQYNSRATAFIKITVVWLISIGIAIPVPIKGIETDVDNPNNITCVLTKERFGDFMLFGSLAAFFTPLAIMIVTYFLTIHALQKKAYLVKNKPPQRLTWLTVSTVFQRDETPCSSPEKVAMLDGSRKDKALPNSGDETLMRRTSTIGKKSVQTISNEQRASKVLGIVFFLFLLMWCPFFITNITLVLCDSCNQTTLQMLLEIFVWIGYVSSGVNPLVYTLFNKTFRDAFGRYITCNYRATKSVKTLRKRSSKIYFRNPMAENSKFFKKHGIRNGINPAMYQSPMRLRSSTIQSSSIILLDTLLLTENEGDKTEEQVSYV
Sequence of Alpha-1D adrenergic receptor (Homo sapiens) (P25100 whole entry): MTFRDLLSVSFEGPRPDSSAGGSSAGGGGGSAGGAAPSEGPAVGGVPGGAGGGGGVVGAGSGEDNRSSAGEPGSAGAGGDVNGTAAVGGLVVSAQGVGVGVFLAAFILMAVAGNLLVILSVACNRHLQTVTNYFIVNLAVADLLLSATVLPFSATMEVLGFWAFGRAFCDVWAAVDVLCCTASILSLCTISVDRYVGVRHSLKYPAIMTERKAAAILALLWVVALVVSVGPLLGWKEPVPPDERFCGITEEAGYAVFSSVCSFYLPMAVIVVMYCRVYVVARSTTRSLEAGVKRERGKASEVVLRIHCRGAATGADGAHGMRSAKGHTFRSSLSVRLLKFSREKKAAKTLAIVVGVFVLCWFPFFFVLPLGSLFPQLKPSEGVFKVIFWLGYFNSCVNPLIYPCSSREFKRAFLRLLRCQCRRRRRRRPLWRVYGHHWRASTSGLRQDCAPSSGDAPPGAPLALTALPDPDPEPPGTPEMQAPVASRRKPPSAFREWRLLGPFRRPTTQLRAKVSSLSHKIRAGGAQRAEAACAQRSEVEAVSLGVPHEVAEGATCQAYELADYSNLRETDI
Sequence of Histamine H2 receptor (Homo sapiens) (P25021 whole entry): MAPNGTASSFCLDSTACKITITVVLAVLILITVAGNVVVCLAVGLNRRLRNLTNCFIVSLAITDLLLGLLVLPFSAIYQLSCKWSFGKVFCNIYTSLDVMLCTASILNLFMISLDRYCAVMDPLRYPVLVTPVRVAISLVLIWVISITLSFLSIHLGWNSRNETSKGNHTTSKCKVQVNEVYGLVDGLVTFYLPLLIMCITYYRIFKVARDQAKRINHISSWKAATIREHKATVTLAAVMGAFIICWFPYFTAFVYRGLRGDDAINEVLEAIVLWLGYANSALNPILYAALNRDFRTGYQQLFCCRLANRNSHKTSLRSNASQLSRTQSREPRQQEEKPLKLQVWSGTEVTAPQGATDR
Sequence of 5-hydroxytryptamine receptor 3A (Homo sapiens) (P46098 whole entry): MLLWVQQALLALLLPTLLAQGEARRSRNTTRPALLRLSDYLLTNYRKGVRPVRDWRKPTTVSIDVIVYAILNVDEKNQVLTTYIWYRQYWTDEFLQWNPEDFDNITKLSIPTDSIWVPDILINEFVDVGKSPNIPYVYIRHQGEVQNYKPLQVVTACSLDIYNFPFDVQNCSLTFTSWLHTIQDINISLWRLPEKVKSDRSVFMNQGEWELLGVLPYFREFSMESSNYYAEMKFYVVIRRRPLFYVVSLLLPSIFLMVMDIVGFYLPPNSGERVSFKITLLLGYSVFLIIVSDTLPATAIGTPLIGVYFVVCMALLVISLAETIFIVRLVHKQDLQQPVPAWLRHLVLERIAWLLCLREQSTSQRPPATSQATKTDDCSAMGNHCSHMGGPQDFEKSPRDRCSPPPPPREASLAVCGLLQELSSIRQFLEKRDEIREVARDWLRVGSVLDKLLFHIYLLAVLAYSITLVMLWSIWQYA

Row | Structure (SMILES) | inhibition [1] [%] | inhibition [2] [%] | inhibition [3] [%] | inhibition [4] [%] | inhibition [5] [%] | inhibition [6] [%] | inhibition [7] [%] | inhibition [8] [%] | inhibition [9] [%] | inhibition [10] [%] | inhibition [11] [%] | inhibition [12] [%] | inhibition [13] [%] | inhibition [14] [%] | inhibition [15] [%] | inhibition [16] [%] | further results
1 | Cc1c(N2CCNCC2)nc2ccc(Br)cc2c1C(=O)NC[C@H](CCC(=O)O)c1ccccc1Cl [BAY-403] | 40.9 | 16.2 | 1.76 | 5.34 | 11.3 | 31 | 86 | 47.1 | -2.31 | 65 | -4.15 | 38 | 18.4 | -0.13 | 13.8 | 16 | 
2 | Cc1c(N2CCCC2)nc2ccc(Br)cc2c1C(=O)NC[C@H](CCC(=O)O)c1ccccc1Cl [BAY-6672] | 11.7 | 19.4 | 6.59 | -7.59 | -5.32 | 5.5 | 37.7 | 5.62 | -4.96 | -4.59 | 23.3 | 5.24 | 19.9 | 9.92 | 14.6 | 3.44 | inhibition [17]: 5%; inhibition [18]: 3%; inhibition [19]: 6%; inhibition [20]: 15%; inhibition [21]: 8%
